From US10017451B2, “Lactic acid extraction” (PURAC BIOCHEM BV, priority 2011, dated 2018)
Values belong to the compound of their own block, whether it stands above or below them.

Key:
Assay type in all cases: physicochemical
[1] = Stability of solvents in contact with lactic acid feed solution, gas chromatography (Example 6); settings: 60° C.
Description: This experiment was conducted to compare the stability of two solvents, MIBK and Isoamyl alcohol in contact with the lactic acid feed solution as prepared in example 1. For each solvent a closed glass reactor was filled with 20 g of solvent and 20 g of the lactic acid feed solution, put in an oven to maintain a temperature of 60° C. and shaken continuously.
After 3 hrs, 24 hrs (1 day) and 168 hrs (1 week) the shaking was stopped for 1 hour to allow the phases to settle, a sample was taken from the solvent top layer, and the composition of the solvent top layer analyzed by gas chromatography.

[2] = MIBK solubility in aqueous MgCl2 solution, gas chromatography (Example 8); settings: aqueous phase
Description: Hereafter, the stirring is stopped, the phases were allowed to separate and a sample was taken from the aqueous bottom phase. The concentration of MIBK in this sample was determined by gas chromatography.

[3] = Lactic acid distribution ratio MIBK/aqueous MgCl2 solution (Example 7); settings: initial lactic acid 20 wt %
From the text: Forward extraction and back extraction as used in the method of the invention are based on the difference in solubility of the lactic acid in water and the organic solvent at different temperatures. The solubility of a compound in one solvent relative to another solvent can be expressed in terms of the distribution ratio (DR). This ratio gives an indication how a compound will be distributed over the aqueous phase (e.g. the aqueous mixture) and the organic phase (e.g. the organic liquid) in a two-phase system at equilibrium. The distribution ratio may be defined as the ratio of the lactic acid concentration dissolved in the organic phase ([lactic acid]organic) over the concentration of the lactic acid dissolved in water ([lactic acid]water) provided that the two phases are in equilibrium with each other: DR=[lactic acid]organic/[lactic acid]water(1)
The resulting two phase system was stirred at 20° C. or 60° C. for 30 minutes with sufficient speed to ensure that both phases are well dispersed. Hereafter, the stirring is stopped, the phases were allowed to separate and samples were taken from both phases. The concentration of lactic acid (wt %) in these samples was determined by potentiometric titration. Hereafter the distribution ratio was calculated as the ratio of the lactic acid concentration (wt %) in the MIBK organic solvent phase divided by the lactic acid concentration (wt %) in the aqueous phase.

MIBK solubility ([2]; MgCl2 0 wt %, 20° C.): 1.8 wt %
MIBK solubility ([2]; MgCl2 0 wt %, 60° C.): 1.4 wt %
MIBK solubility ([2]; MgCl2 15 wt %, 20° C.): 0.48 wt %
MIBK solubility ([2]; MgCl2 15 wt %, 60° C.): 0.20 wt %
MIBK solubility ([2]; MgCl2 30 wt %, 20° C.): 0.17 wt %
MIBK solubility ([2]; MgCl2 30 wt %, 60° C.): 0.11 wt %
SMILES: CC(=O)CC(C)C [MIBK, methyl-isobutyl-ketone]
changes in purity of the solvent ([1]; after 168 hrs, GC of solvent top layer): no changes in the purity of the MIBK could be detected

isoamyllactate concentration ([1]; 24 hrs and 168 hrs samples): 22.5 area %
isoamyllactate formed ([1]; after 3 hrs, GC of solvent top layer): 14.6 area %
SMILES: CC(C)CCO [isoamyl alcohol]

Lactic acid distribution ratio ([3]; MgCl2 0 wt %, 20° C.): 0.16 wt %/wt %
Lactic acid distribution ratio ([3]; MgCl2 0 wt %, 60° C.): 0.19 wt %/wt %
Lactic acid distribution ratio ([3]; MgCl2 10.5 wt %, 20° C.): 0.33 wt %/wt %
Lactic acid distribution ratio ([3]; MgCl2 10.5 wt %, 60° C.): 0.37 wt %/wt %
Lactic acid distribution ratio ([3]; MgCl2 16.0 wt %, 20° C.): 0.49 wt %/wt %
Lactic acid distribution ratio ([3]; MgCl2 16.0 wt %, 60° C.): 0.56 wt %/wt %
SMILES: CC(O)C(=O)O (stereo not drawn) [lactic acid]
